Literature values in patent publication US20240226034A1, “Use of Terpenoids and Salicylates as Anesthetics and Analgesics” (THE REGENTS OF THE UNIVERSITY OF CALIFORNIA, priority 2021, published 2024).

Test system: rats
Conditions: antagonism of spinal GABAA receptors in rats; cited from earlier work

FC(F)OC(Cl)C(F)(F)F (stereo not shown) [isoflurane]
increase of EC50 for immobilization: up to 40%
